The test system of data set [1] is CPS1. Put plainly: RNA-seq of compound-treated primary human hepatocytes, CPS1 expression. It counts as cell-based. The conditions noted are these: for Relative CPS1 level vs Untreated (±Standard Deviation): primary human hepatocytes, triplicate (Table 20, FIG. 12).
For data set [2], the system named is OTC. Description: OTC expression modulated by compounds, OTC/GeoMean of housekeeping genes, DMSO = 1 (Table 3A). The conditions noted are these: 10 uM final concentration. It counts as cell-based, human.
The test system of data set [3] is OTC. Description: RNA-seq of compound-treated primary human hepatocytes, OTC expression. Type of data set: cell-based. To be noted: for Relative OTC level vs Untreated (±Standard Deviation): primary human hepatocytes, triplicate (Table 14).
Data set [4] deals with ARG1. Description: RNA-seq of compound-treated primary human hepatocytes, ARG1 expression. It counts as cell-based. To be noted: for Relative ARGI level vs Untreated (±Standard Deviation): primary human hepatocytes.
Data set [5] relates to ASS1. Put plainly: RNA-seq of compound-treated primary human hepatocytes, ASS1 expression. Type of data set: cell-based. To be noted: 10 uM, primary human hepatocytes, triplicate (Table 15, FIG. 8).
For data set [6], the system named is ASL. Put plainly: RNA-seq of compound-treated primary human hepatocytes, ASL expression. It counts as cell-based. The conditions noted are these: for Relative ASL level vs Untreated (±Standard Deviation): primary human hepatocytes, triplicate (Table 25, FIG. 17).
For data set [7], the system named is OTC. Put plainly: siRNA knockdown of JAK/STAT/IRF genes in hepatocytes, OTC mRNA. It counts as cell-based, human. The conditions noted are these: 10 nM siRNA plus 0.03 nM JAK1 siRNA, FIG. 27C. The text has this:
To confirm that JAK1 inhibition is necessary for OTC and CPS1 gene expression increase, JAK1, JAK2, and JAK3 expression was knocked down using the siRNA methods previously described in Example 1 (JAK1 siRNA Dharmacon #M-003145-02-0005; JAK2 siRNA Dharmacon #M-003146-02-0005; JAK3 siRNA Dharmacon #M-003147-01-0005). The cells were harvest for mRNA collection and quantification as previously described.
In addition, STAT5B is a JAK1 signal transducer and transcription factor activated by JAK1. STAT5B was knocked down in hepatocytes using siRNA (Dharmacon cat #M-010539-02-0005) as previously described in Example 1. The cells were harvest for mRNA collection and quantification as previously described.
To confirm the role of JAK1 and investigate the role of other signaling proteins and transcription factors in OTC and CPS1 expression, a panel of additional genes were knocked down with siRNA alone or in combination with JAK1. In particular, JAK2 was knockdown alone or in combination with JAK1. The combinations are shown in FIG. 26A and FIG. 26B. siRNA used to knock down JAK1 and JAK2 were: JAK1 siRNA Dharmacon #M-003145-02-0005; JAK2 siRNA Dharmacon #M-003146-02-0005. OTC and CPS1 mRNA expression was normalized to B2M. The assay was performed in triplicate in three donor hepatocyte cell lines: 371, 171, and 511A.
Cells were harvested after siRNA treatment for mRNA quantification. JAK1, OTC, and CPS1 mRNA levels were normalized to GUSB.

Where [8] appears, read: Example 11, relative mRNA vs DMSO.

2 molecules from patent US11266655B2, “Methods and compositions for treating urea cycle disorders” (Camp4 Therapeutics Corporation, priority 2019, dated 2022) can be followed below.

For `CN(c1ncccc1CNc1nc(Nc2ccc3c(c2)CC(=O)N3)ncc1C(F)(F)F)S(C)(=O)=O` [PF-00562271], the “Relative CPS1 level vs Untreated (±Standard Deviation)” value was 2.33 ± 0.58 in data set [1] (3 uM) and 4.70 ± 0.49 in data set [1] (10 uM). Also, the “increase in CPS1 gene expression (Tables 19, 20, FIG. 11, 12)” value in data set [1] (setting [8]) is “greatest increase”. The “Max Value (OTC/GeoMean of HKs; DMSO = 1)” value in data set [2] is 3.3. Further, the “Relative OTC level vs Untreated (±Standard Deviation)” value in data set [3] (3 uM) was determined as 3.27 ± 0.59; in data set [3] (10 uM) it was 7.05 ± 1.14. For the same molecule, the “increase in OTC gene expression (Table 14, FIG. 6)” value in data set [3] (setting [8]) is listed as “greatest increase”. For the same molecule, the “Relative ARGI level vs Untreated (±Standard Deviation)” value came out at 1.32 ± 0.33 in data set [4] (10 μM, triplicate (Table 17, FIG. 9)) and 2.53 ± 0.36 in data set [4] (10 uM, triplicate (Table 18, FIG. 10)). Further, the “increase in ARG1 gene expression (Tables 17, 18, FIG. 9, 10)” value in data set [4] (setting [8]) was “greatest increase”. In addition, the “Relative ASS1 level vs Untreated (±Standard Deviation)” value in data set [5] came to 2.30 ± 0.41. For the same molecule, the “Relative ASL level vs Untreated (±Standard Deviation)” value in data set [6] (3 uM) is given as 2.09 ± 0.67; in data set [6] (10 uM) it was 4.92 ± 1.05. Moreover, the “increase in ASL gene expression (Table 25, FIG. 17)” value in data set [6] (setting [8]) is listed as “greatest increase”.
Consider “STAT5A (DNA ATTTCTNAGAAA; target site or template, no part of the molecule; chemistry not given here)”, for which, in data set [7], the “OTC expression after knockdown in combination with JAK1” value is recorded as “increased”.
